Laboratory results as given in patent US10010525B2, “Methods of inducing anesthesia” (The Regents of the University of California, priority 2012, dated 2018).

What was measured:
[1] = system: 3-transmembrane (TM3) and 4-transmembrane (TM4) receptors; conditions: grouped by calculated molar solubility in unbuffered water at 25° C.; cited from earlier work
[2] = target: T1, GABAA (α1β2γ2s) receptors (UniProt P14867+P18508+P63138); experiment: GABAA receptor two-electrode voltage clamp in oocytes at saturated drug concentration; type: cell-based, human α1, rat β2 and γ2s; conditions: for GABAA % Direct Effect: drug response without receptor agonist; for GABAA % Direct Effect / GABAA % Agonist Effect: percent of control agonist peak, mean ±SEM, 5-6 oocytes, saturated drug; for GABAA % Agonist Effect: drug with γ-aminobutyric acid; for GABAA Drug Response: drug+agonist versus control agonist peak
T1 construct: expressed in transfected cells; host or cells: Xenopus laevis oocytes (intranuclear plasmid injection, α1:β2:γ2 = 1:1:10)
Excerpt: (§1) GABAA (α1β2γ2s) or NMDA (NR1/NR2A) receptors were expressed in oocytes and studied using standard two-electrode voltage clamp techniques. Hydrocarbons from 14 different organic functional groups were studied at saturated concentrations, and compounds within each group differed only by the carbon number at the ω-position or within a saturated ring. An effect on GABAA or NMDA receptors was defined as a 10% or greater reversible current change from baseline that was statistically different from zero.
(§2) An ovary from tricaine-anesthetized Xenopus laevis frogs was surgically removed using a protocol approved by the Institutional Animal Care and Use Committee at the University of California, Davis. Following manual disruption of the ovarian lobule septae, the ovary was incubated in 0.2% Type I collagenase (Worthington Biochemical, Lakewood, N.J.) to defolliculate oocytes which were washed and stored in fresh and filtered modified Barth's solution composed of 88 mM NaCl, 1 mM KCl, 2.4 mM NaHCO3, 20 mM HEPES, 0.82 mM MgSO4, 0.33 mM Ca(NO3)2, 0.41 mM CaCl2, 5 mM sodium pyruvate, gentamycin, penicillin, streptomycin, and corrected to pH=7.4. All salts and antibiotics were A.C.S. grade (Fisher Scientific, Pittsburgh, Pa.).
(§3) Clones used were provided as a gift from Dr. R. A. Harris (University of Texas, Austin) and were sequenced and compared to references in the National Center for Biotechnology Information database to confirm the identity of each gene. GABAA receptors were expressed using clones for the human GABAA α1 and the rat GABAA β2 and γ2s subunits in pCIS-II vectors. […] In separate oocytes, glutamate receptors were expressed using rat NMDA NR1 clones in a pCDNA3 vector and rat NMDA NR2A clones in a Bluescript vector. RNA encoding each subunit was prepared using a commercial transcription kit (T7 mMessage mMachine, Ambion, Austin, Tex.) was mixed in a 1:1 ratio, and 1-10 ng of total RNA was injected into oocytes and studied 1-2 days later.
Oocytes were studied in a 250 μL linear-flow perfusion chamber with solutions administered by syringe pump at 1.5 ml/min with gastight glass syringes and Teflon tubing. Oocyte GABAA currents were studied using standard two-electrode voltage clamping techniques at a holding potential of […] using a 250 μL channel linear-flow perfusion chamber with solutions administered by syringe pump at 1.5 mL/min.
After FR perfusion for 5 min, oocytes were exposed to 30 sec FR-GABA followed by another 5 min FR washout; this was repeated until stable GABAA-elicited peaks were obtained. Next, FR containing a saturated solution of the study drug (Table 2)—or for gaseous study compounds a vapor pressure equal to 90% of barometric pressure with balance oxygen—was used to perfuse the oocyte chamber for 2 min followed by perfusion with a FR-GABA solution containing the identical drug concentration for 30 sec.
(§4) Modulating drug responses were calculated as the percent of the control (baseline) peak as follows: 100·ID/IB, where ID and IB were the peak currents measured during agonist+drug and agonist baseline perfusions, respectively. When present, direct receptor activation by a drug was similarly calculated as a percent of the agonist response. […] A lack of receptor response (cut-off) was defined as a<10% change from baseline current that was statistically indistinguishable from zero using a two-tailed Student t-test.

[3] = target: T2, NMDA (NR1/NR2A) receptors (Rattus norvegicus, UniProt P35439+Q00959); experiment: NMDA receptor two-electrode voltage clamp in oocytes at saturated drug concentration; type: cell-based; conditions: for NMDA % Direct Effect: drug response without receptor agonist; for NMDA % Direct Effect / NMDA % Agonist Effect: percent of control agonist peak, mean ±SEM, 5-6 oocytes, saturated drug; for NMDA % Agonist Effect: drug with glutamate and glycine; for NMDA Drug Response: drug+agonist versus control agonist peak; for NMDA receptor modulation (in words): saturating aqueous concentration
T2 construct: expressed in transfected cells; host or cells: Xenopus laevis oocytes (RNA injection, 1:1)
Excerpt: as §1, §2, §3
Briefly, baseline perfusion solutions were the same as for GABAA with the substitution of equimolar BaCl2 for calcium salts and the addition of 0.1 mM EGTA; this constituted barium frog Ringer's solution (BaFR). Agonist solutions for NMDA studies also contained 0.1 mM glutamate (E) and 0.01 mM glycine (G) to constitute a BaFREG solution.
The syringe pump and perfusion chamber apparatus as well as the clamp holding potential and baseline-agonist exposure protocols were identical to that described for the GABAA studies. The same test compounds, concentrations, and preparative methods were used in NMDA voltage clamp studies as in the GABAA voltage clamp studies (Table 2).
as §4

T2 sequence (Q00959 23-1464, other chains not shown): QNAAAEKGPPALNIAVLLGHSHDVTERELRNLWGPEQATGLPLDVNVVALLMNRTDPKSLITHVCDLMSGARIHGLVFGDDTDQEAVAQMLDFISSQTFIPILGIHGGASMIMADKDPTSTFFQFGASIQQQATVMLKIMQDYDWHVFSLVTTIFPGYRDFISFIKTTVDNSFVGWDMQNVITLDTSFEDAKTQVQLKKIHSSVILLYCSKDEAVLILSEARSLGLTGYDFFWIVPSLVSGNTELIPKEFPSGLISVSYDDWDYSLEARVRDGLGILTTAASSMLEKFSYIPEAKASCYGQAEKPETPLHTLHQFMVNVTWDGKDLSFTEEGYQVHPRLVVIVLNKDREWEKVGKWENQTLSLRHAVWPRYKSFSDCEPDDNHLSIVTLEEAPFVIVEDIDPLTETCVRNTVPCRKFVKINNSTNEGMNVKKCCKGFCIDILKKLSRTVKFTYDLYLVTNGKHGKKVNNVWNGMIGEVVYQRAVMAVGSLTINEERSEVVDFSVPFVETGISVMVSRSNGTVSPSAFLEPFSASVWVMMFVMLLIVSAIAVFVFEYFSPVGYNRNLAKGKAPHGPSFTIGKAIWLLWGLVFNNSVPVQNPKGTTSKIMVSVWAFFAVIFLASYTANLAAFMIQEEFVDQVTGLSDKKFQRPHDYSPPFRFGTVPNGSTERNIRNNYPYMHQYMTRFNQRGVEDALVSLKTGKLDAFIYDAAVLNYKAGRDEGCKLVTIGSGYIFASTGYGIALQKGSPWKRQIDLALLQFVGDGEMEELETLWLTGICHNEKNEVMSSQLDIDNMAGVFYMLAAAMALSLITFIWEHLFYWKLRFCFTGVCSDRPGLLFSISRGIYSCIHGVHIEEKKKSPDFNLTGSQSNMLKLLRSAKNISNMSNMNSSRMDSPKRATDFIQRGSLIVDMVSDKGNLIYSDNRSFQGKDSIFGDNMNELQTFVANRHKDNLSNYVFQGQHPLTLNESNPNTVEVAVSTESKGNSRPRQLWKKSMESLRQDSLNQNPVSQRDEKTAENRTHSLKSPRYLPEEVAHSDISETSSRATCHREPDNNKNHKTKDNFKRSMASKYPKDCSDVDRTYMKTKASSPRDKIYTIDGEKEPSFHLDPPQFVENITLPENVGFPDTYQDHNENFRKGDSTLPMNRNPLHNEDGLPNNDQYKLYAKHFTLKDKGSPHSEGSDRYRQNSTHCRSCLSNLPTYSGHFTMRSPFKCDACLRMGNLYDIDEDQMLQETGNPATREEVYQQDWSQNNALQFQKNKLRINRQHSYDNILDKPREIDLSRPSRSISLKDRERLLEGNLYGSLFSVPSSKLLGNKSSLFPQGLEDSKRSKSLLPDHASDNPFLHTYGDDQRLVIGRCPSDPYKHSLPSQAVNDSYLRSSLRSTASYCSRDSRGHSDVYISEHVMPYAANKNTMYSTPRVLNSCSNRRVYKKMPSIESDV
T1 sequence (P14867 28-456): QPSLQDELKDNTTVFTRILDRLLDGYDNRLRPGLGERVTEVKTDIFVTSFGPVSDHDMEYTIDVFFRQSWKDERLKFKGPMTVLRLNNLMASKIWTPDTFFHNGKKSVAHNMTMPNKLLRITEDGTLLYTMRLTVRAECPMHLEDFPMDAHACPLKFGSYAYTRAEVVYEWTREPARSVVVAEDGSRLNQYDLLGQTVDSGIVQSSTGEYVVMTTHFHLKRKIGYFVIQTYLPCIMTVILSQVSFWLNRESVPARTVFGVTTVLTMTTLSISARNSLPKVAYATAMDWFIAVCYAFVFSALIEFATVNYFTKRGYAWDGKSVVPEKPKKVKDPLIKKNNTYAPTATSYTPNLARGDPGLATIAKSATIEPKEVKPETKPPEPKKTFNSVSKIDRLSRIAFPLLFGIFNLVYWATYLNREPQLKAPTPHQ
T1 sequence (P63138 25-474 limits assumed): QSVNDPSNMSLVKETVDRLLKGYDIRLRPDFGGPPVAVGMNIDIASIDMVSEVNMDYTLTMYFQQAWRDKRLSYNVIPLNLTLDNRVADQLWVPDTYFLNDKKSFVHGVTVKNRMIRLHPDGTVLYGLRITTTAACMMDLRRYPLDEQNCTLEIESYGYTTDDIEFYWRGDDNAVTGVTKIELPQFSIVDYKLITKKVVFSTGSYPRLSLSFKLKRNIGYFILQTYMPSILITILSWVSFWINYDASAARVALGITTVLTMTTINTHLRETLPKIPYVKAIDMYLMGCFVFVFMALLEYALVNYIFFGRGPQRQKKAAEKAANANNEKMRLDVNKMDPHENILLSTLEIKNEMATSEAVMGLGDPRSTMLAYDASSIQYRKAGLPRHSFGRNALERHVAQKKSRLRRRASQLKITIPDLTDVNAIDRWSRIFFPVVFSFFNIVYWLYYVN
T1 sequence (P18508 39-466): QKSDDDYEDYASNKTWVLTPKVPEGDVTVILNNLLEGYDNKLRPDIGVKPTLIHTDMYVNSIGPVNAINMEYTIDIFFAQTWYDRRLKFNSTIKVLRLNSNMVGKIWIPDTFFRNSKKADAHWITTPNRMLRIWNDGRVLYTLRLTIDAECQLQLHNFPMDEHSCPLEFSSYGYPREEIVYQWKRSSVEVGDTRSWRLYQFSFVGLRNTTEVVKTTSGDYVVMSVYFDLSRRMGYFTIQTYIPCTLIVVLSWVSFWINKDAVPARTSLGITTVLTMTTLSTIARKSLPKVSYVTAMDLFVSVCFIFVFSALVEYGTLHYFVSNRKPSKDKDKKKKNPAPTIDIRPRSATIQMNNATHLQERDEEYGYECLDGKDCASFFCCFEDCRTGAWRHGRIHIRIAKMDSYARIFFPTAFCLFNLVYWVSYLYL

Row | SMILES | ion channel modulation, TM3 versus TM4 receptors (FIG. 2) [1] | GABAA % Direct Effect [2] | GABAA % Agonist Effect [2] [%] | GABAA Drug Response [2] | NMDA % Direct Effect [3] | NMDA % Agonist Effect [3] [%] | NMDA Drug Response [3] | GABAA receptor modulation (in words) ([2]; saturating aqueous concentration) | NMDA receptor modulation (in words) [3] | NMDA receptor modulation (in words) ([3]; listed as n-butane)
1 | FC1(F)C(F)(F)C(F)(Cl)C1(F)Cl (stereo not drawn) [1,2-dichlorohexafluorocyclobutane] | modulate 4-transmembrane receptors (TM4) or neither receptor type | – | – | – | – | – | – | – | – | –
2 | CCCCCCCCC(C)=O [2-decanone] | – | none | 476 ± 52 | + (potentiation (+) for drug+agonist responses greater than the control agonist peak) | none | 81 ± 1 | – | – | – | –
3 | CCCCCCCCCCC(C)=O [2-dodecanone] | – | none | 325 ± 30 | + (potentiation (+) for drug+agonist responses greater than the control agonist peak) | none | 97 ± 3 | 0 (no response (0) for drug+agonist responses that differ by <10% from the control agonist peak) | – | – | –
4 | CCCCCCCCCC(C)=O [2-undecanone] | – | none | 230 ± 16 | + (potentiation (+) for drug+agonist responses greater than the control agonist peak) | none | 98 ± 2 | 0 (no response (0) for drug+agonist responses that differ by <10% from the control agonist peak) | – | – | –
5 | CCCC [butane] | – | none | 623 ± 68 | + (potentiation (+) for drug+agonist responses greater than the control agonist peak) | none | 7 ± 2 | – | positively modulate | negatively modulates | almost completely inhibited NMDA receptor currents
6 | C1CCCCC1 [cyclohexane] | – | none | 421 ± 17 | + (potentiation (+) for drug+agonist responses greater than the control agonist peak) | none | 101 ± 2 | 0 (no response (0) for drug+agonist responses that differ by <10% from the control agonist peak) | – | – | –
7 | C1CCCC1 [cyclopentane] | – | 3 ± 2% | 196 ± 11 | + (potentiation (+) for drug+agonist responses greater than the control agonist peak) | none | 83 ± 2 | – | – | – | –
8 | C1CC1 [cyclopropane] | modulate both 3-transmembrane (TM3) and TM4 receptors | – | – | – | – | – | – | – | – | –
9 | CCCCCCCCCC=O [decanal] | – | none | 159 ± 5 | + (potentiation (+) for drug+agonist responses greater than the control agonist peak) | none | 97 ± 3 | 0 (no response (0) for drug+agonist responses that differ by <10% from the control agonist peak) | – | – | –
10 | FC(F)OC(F)C(F)(F)F (stereo not drawn) [desflurane] | modulate both 3-transmembrane (TM3) and TM4 receptors | – | – | – | – | – | – | – | – | –
